The values that follow come from ChEMBL document CHEMBL1140124, “Triterpenoids from the leaves of Diospyros kaki (persimmon) and their inhibitory effects on protein tyrosine phosphatase 1B” (J Nat Prod, 2008).

Where only a bound is given, the exact number is not on record here.

This assay deals with T1, Tyrosine-protein phosphatase non-receptor type 1 (Homo sapiens, UniProt P18031).
T1 sequence (P18031 whole entry): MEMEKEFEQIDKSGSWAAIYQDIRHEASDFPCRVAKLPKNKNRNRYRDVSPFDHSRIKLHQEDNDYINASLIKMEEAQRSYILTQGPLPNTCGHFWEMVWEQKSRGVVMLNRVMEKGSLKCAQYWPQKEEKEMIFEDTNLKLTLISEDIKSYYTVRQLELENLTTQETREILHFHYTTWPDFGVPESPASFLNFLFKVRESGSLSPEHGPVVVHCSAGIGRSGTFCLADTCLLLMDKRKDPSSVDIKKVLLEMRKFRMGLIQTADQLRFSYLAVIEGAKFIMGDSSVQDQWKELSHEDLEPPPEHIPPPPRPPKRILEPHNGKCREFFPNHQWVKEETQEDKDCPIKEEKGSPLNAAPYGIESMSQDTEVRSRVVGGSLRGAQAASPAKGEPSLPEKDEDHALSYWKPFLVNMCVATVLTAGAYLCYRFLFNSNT
Nature of the assay: Inhibition of human recombinant PTP1B after 30 mins.
A word on the IC50: it is the concentration that inhibits the measured activity by half. Turning to `CCCCCCCCCCCCCCCC(=O)C1=C(O)[C@@H](CO)OC1=O`, the IC50 came out at 4.1 µM.
In the case of `C[C@@]1(CO)CC[C@]2(C(=O)O)CC[C@]3(C)C(=CC[C@@H]4[C@@]5(C)CC[C@@H](O)[C@](C)(CO)[C@@H]5CC[C@]43C)[C@@H]2C1`, the IC50 is more than 30 µM.
In the case of `C[C@H]1[C@H](C)CC[C@]2(C(=O)O)CC[C@]3(C)C(=CC[C@@H]4[C@@]5(C)CC[C@@H](O)[C@](C)(CO)[C@@H]5CC[C@]43C)[C@H]12` it was more than 30 µM.
`C[C@@H]1CC[C@]2(C(=O)O)CC[C@]3(C)C(=CC[C@@H]4[C@@]5(C)CCC(=O)[C@](C)(CO)[C@@H]5CC[C@]43C)[C@@H]2[C@]1(C)O`: the IC50 was 8.1 µM.
Regarding `C[C@H]1[C@H](C)CC[C@]2(C(=O)O)CC[C@]3(C)C(=CC[C@@H]4[C@@]5(C)CC[C@H](O)[C@](C)(CO)[C@@H]5CC[C@]43C)[C@H]12`, the IC50 was found to be 12.8 µM.
`C[C@@H]1CC[C@]2(C(=O)O)CC[C@]3(C)C(=CC[C@@H]4[C@@]5(C)CC[C@@H](O)[C@](C)(CO)[C@@H]5CC[C@]43C)[C@@H]2[C@]1(C)O` [BARBINERVIC ACID]: the IC50 was more than 30 µM.
`C=C1CC[C@]2(C(=O)O)CC[C@]3(C)C(=CC[C@@H]4[C@@]5(C)CC[C@@H](O)[C@](C)(CO)[C@@H]5CC[C@]43C)[C@@H]2[C@]1(C)O` [COUSSARIC ACID]: the concentration for half-maximal inhibition (IC50) was more than 30 µM.
Take `C=C1CC[C@]2(C(=O)O)CC[C@]3(C)C(=CC[C@@H]4[C@@]5(C)CC[C@@H](O)[C@](C)(C(=O)O)[C@@H]5CC[C@]43C)[C@@H]2[C@]1(C)O` [DIOSPYRIC ACID A]: the IC50 was more than 30 µM.
Consider `C[C@@H]1CC[C@]2(C(=O)O)CC[C@]3(C)C(=CC[C@@H]4[C@@]5(C)CC[C@@H](O)[C@](C)(C(=O)O)[C@@H]5CC[C@]43C)[C@@H]2[C@]1(C)O` [DIOSPYRIC ACID B], for which the IC50 is more than 30 µM.
On to `CC1(C)CC[C@]2(C(=O)O)CC[C@]3(C)C(=CC[C@@H]4[C@@]5(C)CCC(=O)C(C)(C)[C@@H]5CC[C@]43C)[C@@H]2C1` [OLEANONIC ACID], for which the IC50 turned out to be 3.5 µM.
In the case of `C[C@@H]1CC[C@]2(C(=O)O)CC[C@]3(C)C(=CC[C@@H]4[C@@]5(C)CC[C@H](O)C(C)(C)[C@@H]5CC[C@]43C)[C@@H]2[C@]1(C)O` [POMOLIC ACID] it was 3.9 µM; in that of `C[C@@H]1CC[C@]2(C(=O)O)CC[C@]3(C)C(=CC[C@@H]4[C@@]5(C)CC[C@H](O)[C@](C)(CO)[C@@H]5CC[C@]43C)[C@@H]2[C@]1(C)O` [ROTUNGENIC ACID], 10.9 µM; in that of `CC1(C)CC[C@]2(C(=O)O)CC[C@]3(C)C(=CC[C@@H]4[C@@]5(C)CC[C@@H](O)[C@](C)(CO)[C@@H]5CC[C@]43C)[C@@H]2C1` [SCUTELLARIC ACID], more than 30 µM.
Consider `CC1(C)CC[C@]2(C(=O)O)CC[C@]3(C)C(=CC[C@@H]4[C@@]5(C)CC[C@H](O)[C@](C)(CO)[C@@H]5CC[C@]43C)[C@@H]2[C@@H]1O` [SPATHODIC ACID], for which the IC50 worked out at 18.8 µM.
